# Biological target: T1, FKBP12^F36V-KRAS^G12V (Homo sapiens, UniProt P01116+P62942, F37V/G12V)
# T1 construct: KRAS G12V (fusion partner, same polypeptide); expressed in transfected cells
# Assay: Immunoblot of PATU-8902 FKBP12F36V-KRASG12V; KRAS-/- clone
# Type: cell-based
# Settings: pretreated 2 h prior to dTAGV-1 for 4 h
# Description: PATU-8902 LACZ-FKBP12^F36V and FKBP12^F36V-KRAS^G12V; KRAS^−/− cells and 293T cells were lysed with RIPA buffer supplemented with cOmplete protease inhibitors (Roche), PhosSTOP phosphatase inhibitors (Roche), and 0.1% benzonase (Novagen). Proteins were separated using NuPAGE Bolt^TM Bis–Tris gels (Thermo Fisher Scientific) and transferred to nitrocellulose membranes, which were blocked with Odyssey Blocking Buffer (LI-COR) and incubated with primary antibodies overnight. Membranes were washed three times with TBS-T, incubated with the appropriate fluorescently labeled infrared secondary antibodies, washed again three times with TBS-T, and assessed using an Odyssey CLx Imager (LI-COR)[6],[15]. EWS502 cells were lysed with Cell Lysis Buffer (Cell Signaling Technology) supplemented with cOmplete protease inhibitors (Roche). Proteins were separated using SDS-PAGE gels and transferred to PVDF membranes, which were blocked with 5% milk in TBS-T and incubated with primary antibodies overnight. Membranes were washed five times with TBS-T, incubated with the appropriate horseradish peroxidase-conjugated secondary antibodies, washed again five times with TBS-T, and imaged. The following primary antibodies were employed in this study: HA (Cell Signaling Technology #3724 and #2367, dilution at 1:1000), phospho-ERK1/2 T202/Y204 (Cell Signaling Technology #4370, dilution at 1:1000), ERK1/2 (Cell Signaling Technology #4696, dilution at 1:1000), phospho-AKT S473 (Cell Signaling Technology #4060, dilution at 1:1000), AKT (Cell Signaling Technology #2920, dilution at 1:1000), FKBP12 (Abcam #ab24373, dilution at 1:1000), GFP (Cell Signaling Technology #2555, dilution at 1:1000), FLI (Abcam #ab15289, dilution at 1:2000), NKX2-2 (Abcam #ab187375, dilution at 1:1000), GAPDH (Cell Signaling Technology #2118, dilution at 1:3000), Vinculin (Cell Signaling Technology #13901, dilution at 1:3000), β-Actin (Cell Signaling Technology #58169, dilution at 1:3000), and α-Tubulin (Cell Signaling Technology #3873, dilution at 1:5000). Species-specific fluorescently labeled infrared secondary antibodies including IRDye 680LT anti-Mouse IgG (LI-COR #926-68020, dilution at 1:5000), IRDye 800CW anti-Mouse IgG (LI-COR #926-32210, dilution at 1:5000), IRDye 680LT anti-Rabbit IgG (LI-COR #926-68021, dilution at 1:5000), and IRDye 800CW anti-Rabbit IgG (LI-COR #926-32211, dilution at 1:5000) and peroxidase-linked secondary antibodies including anti-Mouse IgG (Thermo Fisher Scientific #45000680, dilution at 1:5000) and anti-Rabbit IgG (Thermo Fisher Scientific #45000682, dilution at 1:5000) were employed as appropriate.
# T1 sequence (P62942+P01116 fused P62942:F37V/P01116:G12V): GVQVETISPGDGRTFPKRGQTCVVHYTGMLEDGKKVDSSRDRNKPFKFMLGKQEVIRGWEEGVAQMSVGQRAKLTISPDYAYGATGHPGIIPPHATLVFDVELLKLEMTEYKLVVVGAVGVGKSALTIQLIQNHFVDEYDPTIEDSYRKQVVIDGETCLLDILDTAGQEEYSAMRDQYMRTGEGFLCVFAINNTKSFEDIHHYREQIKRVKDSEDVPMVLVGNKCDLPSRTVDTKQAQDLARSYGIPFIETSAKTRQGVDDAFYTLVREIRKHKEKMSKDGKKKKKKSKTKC
row,Compound,Effect of pre-treatment on dTAGV-1-induced KRASG12V degradation
1,NS(=O)(=O)OC[C@@H]1C[C@@H](n2ccc3c(N[C@H]4CCc5ccccc54)ncnc32)C[C@@H]1O [MLN4924],rescued
2,CC(C)C[C@H](NC(=O)[C@H](CCc1ccccc1)NC(=O)CN1CCOCC1)C(=O)N[C@@H](Cc1ccccc1)C(=O)N[C@@H](CC(C)C)C(=O)[C@@]1(C)CO1 [carfilzomib],rescued

# — PMC7501296, “Rapid and direct control of target protein levels with VHL-recruiting dTAG molecules” (Nature Communications, 2020)
